Data published in ChEMBL document CHEMBL1201862, “PubChem BioAssay data set” (2004).
Active and inactive are the calls of the source.

What was measured:
[1] = target: T1, Aminopeptidase N (Plasmodium falciparum FcB1/Columbia, UniProt O96935); experiment: malaria alanyl aminopeptidase activity blockers – biochemical, fluorogenic H-Leu-NHMec substrate, 1536-well (AID 1445); design: species or system Plasmodium falciparum 3D7, 3D7
T1 sequence (O96935 whole entry): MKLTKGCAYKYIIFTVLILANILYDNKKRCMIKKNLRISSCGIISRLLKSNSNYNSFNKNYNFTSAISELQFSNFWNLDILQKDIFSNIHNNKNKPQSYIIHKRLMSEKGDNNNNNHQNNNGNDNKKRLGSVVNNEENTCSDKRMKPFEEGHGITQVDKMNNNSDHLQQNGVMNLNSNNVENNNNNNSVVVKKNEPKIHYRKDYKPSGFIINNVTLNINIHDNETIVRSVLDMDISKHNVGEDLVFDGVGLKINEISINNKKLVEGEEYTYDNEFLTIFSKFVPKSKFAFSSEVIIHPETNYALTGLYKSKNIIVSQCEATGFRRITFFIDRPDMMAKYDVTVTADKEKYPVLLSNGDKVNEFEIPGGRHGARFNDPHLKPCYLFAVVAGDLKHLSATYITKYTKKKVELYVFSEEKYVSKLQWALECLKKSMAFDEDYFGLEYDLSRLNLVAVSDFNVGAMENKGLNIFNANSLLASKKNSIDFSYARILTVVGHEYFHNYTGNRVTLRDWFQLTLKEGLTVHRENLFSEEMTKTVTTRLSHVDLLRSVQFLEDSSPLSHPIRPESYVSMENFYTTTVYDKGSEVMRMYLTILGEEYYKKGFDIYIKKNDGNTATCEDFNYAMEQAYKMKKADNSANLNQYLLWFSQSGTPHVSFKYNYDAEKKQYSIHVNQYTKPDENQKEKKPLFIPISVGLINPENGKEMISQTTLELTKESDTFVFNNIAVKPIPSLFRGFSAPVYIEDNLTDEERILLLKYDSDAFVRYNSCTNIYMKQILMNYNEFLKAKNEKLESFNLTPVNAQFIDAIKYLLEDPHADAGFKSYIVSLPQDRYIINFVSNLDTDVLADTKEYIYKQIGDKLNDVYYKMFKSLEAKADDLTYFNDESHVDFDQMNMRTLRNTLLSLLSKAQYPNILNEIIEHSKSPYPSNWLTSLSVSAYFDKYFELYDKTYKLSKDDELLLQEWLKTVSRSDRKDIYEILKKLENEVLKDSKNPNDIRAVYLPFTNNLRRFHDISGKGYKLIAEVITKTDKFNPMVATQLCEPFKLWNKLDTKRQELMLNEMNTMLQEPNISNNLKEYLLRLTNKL

[2] = target: T2, Leucine aminopeptidase (Plasmodium falciparum 3D7, UniProt Q8IL11); experiment: P. falciparum M17LAP inhibitors, primary screen, biochemical, fluorogenic H-Leu-NHMec substrate, 1536-well (AID 1619); type: functional
T2 sequence (Q8IL11 whole entry): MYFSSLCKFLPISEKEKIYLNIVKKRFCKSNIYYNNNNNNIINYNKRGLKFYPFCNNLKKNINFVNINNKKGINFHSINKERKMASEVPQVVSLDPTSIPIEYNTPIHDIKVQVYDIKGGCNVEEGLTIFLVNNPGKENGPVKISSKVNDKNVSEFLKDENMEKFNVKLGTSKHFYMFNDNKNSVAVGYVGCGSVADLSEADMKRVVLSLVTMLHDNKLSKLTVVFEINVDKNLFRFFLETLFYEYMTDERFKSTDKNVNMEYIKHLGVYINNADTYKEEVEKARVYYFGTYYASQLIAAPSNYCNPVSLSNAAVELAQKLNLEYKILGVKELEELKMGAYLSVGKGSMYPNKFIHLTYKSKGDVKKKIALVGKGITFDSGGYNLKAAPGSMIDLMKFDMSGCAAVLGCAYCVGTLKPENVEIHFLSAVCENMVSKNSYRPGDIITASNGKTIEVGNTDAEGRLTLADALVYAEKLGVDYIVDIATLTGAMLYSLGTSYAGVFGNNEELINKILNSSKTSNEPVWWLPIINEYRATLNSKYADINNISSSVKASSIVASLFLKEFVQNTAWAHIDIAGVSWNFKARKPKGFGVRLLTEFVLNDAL

[3] = antiviral protection against BTV-induced cell death – arbovirus, BSR cells, confirmation (AID 1250); type: functional;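 further: protection from viral cytopathic effect measured as cell viability by ATP luminescence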
[4] = target: Cytochrome P450 2C19 (Homo sapiens, UniProt P33261); experiment: qHTS Assay for Inhibitors and Substrates of Cytochrome P450 2C19. [Related pubchem assays: 410 ]; type: ADME; settings: read-out: Potency
Chain of Cytochrome P450 2C19 (P33261 whole entry): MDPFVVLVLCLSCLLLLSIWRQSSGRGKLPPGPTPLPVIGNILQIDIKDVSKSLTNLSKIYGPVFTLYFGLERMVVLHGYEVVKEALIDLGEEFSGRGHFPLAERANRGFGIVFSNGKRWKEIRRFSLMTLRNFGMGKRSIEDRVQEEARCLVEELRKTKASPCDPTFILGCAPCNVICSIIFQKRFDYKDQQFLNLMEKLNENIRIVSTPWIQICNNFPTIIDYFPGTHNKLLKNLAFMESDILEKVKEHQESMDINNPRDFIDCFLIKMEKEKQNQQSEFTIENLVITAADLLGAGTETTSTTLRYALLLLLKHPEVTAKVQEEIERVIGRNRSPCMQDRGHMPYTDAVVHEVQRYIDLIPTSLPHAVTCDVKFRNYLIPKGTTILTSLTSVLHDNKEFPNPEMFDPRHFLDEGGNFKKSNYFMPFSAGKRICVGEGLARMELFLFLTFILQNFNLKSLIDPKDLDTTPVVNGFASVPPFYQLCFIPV

[5] = target: Cytochrome P450 3A4 (Homo sapiens, UniProt P08684); settings: Potency;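 further: confirmatory qHTS run detecting inhibitors and substrates of CYP3A4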
Chain of Cytochrome P450 3A4 (P08684 whole entry): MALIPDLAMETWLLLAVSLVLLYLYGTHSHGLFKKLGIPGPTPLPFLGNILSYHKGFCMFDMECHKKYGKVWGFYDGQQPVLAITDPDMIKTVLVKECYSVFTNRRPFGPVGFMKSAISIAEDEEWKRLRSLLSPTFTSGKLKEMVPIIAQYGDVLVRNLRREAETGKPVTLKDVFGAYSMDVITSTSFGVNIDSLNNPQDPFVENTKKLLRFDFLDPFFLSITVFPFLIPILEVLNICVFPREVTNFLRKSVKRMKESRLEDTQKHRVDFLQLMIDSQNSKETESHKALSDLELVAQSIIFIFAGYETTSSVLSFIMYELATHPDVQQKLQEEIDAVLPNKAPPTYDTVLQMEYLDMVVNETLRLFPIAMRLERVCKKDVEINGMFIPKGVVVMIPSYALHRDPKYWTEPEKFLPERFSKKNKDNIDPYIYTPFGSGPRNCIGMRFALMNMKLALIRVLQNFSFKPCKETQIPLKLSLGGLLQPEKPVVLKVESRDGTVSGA

[6] = target: Peroxisome proliferator-activated receptor gamma/Nuclear receptor corepressor 2 (Homo sapiens, UniProt P37231+Q9Y618); experiment: Counterscreen for NR2E3 inverse agonists: TR-FRET-based biochemical high throughput dose response assay to identify inverse agonists of the interaction between peroxisome proliferator-activated receptor gamma (PPARg) and nuclear receptor co-repressor 2 (NCOR2).; type: functional
Chain of Peroxisome proliferator-activated receptor gamma/Nuclear receptor corepressor 2 (P37231 whole entry): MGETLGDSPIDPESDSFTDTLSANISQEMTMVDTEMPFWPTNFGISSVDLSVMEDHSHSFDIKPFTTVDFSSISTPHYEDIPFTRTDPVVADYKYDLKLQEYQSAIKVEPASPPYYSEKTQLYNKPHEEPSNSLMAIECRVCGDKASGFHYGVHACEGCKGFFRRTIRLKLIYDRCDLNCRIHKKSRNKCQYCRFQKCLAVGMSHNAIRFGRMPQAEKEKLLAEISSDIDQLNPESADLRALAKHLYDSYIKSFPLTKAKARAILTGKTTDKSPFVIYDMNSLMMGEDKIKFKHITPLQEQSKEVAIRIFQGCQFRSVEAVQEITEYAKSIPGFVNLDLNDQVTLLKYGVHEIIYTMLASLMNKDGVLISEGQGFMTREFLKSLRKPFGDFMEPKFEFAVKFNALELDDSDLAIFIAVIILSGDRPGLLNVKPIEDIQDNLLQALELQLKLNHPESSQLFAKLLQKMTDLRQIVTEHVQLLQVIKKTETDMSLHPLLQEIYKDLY
Chain of Peroxisome proliferator-activated receptor gamma/Nuclear receptor corepressor 2 (Q9Y618 whole entry): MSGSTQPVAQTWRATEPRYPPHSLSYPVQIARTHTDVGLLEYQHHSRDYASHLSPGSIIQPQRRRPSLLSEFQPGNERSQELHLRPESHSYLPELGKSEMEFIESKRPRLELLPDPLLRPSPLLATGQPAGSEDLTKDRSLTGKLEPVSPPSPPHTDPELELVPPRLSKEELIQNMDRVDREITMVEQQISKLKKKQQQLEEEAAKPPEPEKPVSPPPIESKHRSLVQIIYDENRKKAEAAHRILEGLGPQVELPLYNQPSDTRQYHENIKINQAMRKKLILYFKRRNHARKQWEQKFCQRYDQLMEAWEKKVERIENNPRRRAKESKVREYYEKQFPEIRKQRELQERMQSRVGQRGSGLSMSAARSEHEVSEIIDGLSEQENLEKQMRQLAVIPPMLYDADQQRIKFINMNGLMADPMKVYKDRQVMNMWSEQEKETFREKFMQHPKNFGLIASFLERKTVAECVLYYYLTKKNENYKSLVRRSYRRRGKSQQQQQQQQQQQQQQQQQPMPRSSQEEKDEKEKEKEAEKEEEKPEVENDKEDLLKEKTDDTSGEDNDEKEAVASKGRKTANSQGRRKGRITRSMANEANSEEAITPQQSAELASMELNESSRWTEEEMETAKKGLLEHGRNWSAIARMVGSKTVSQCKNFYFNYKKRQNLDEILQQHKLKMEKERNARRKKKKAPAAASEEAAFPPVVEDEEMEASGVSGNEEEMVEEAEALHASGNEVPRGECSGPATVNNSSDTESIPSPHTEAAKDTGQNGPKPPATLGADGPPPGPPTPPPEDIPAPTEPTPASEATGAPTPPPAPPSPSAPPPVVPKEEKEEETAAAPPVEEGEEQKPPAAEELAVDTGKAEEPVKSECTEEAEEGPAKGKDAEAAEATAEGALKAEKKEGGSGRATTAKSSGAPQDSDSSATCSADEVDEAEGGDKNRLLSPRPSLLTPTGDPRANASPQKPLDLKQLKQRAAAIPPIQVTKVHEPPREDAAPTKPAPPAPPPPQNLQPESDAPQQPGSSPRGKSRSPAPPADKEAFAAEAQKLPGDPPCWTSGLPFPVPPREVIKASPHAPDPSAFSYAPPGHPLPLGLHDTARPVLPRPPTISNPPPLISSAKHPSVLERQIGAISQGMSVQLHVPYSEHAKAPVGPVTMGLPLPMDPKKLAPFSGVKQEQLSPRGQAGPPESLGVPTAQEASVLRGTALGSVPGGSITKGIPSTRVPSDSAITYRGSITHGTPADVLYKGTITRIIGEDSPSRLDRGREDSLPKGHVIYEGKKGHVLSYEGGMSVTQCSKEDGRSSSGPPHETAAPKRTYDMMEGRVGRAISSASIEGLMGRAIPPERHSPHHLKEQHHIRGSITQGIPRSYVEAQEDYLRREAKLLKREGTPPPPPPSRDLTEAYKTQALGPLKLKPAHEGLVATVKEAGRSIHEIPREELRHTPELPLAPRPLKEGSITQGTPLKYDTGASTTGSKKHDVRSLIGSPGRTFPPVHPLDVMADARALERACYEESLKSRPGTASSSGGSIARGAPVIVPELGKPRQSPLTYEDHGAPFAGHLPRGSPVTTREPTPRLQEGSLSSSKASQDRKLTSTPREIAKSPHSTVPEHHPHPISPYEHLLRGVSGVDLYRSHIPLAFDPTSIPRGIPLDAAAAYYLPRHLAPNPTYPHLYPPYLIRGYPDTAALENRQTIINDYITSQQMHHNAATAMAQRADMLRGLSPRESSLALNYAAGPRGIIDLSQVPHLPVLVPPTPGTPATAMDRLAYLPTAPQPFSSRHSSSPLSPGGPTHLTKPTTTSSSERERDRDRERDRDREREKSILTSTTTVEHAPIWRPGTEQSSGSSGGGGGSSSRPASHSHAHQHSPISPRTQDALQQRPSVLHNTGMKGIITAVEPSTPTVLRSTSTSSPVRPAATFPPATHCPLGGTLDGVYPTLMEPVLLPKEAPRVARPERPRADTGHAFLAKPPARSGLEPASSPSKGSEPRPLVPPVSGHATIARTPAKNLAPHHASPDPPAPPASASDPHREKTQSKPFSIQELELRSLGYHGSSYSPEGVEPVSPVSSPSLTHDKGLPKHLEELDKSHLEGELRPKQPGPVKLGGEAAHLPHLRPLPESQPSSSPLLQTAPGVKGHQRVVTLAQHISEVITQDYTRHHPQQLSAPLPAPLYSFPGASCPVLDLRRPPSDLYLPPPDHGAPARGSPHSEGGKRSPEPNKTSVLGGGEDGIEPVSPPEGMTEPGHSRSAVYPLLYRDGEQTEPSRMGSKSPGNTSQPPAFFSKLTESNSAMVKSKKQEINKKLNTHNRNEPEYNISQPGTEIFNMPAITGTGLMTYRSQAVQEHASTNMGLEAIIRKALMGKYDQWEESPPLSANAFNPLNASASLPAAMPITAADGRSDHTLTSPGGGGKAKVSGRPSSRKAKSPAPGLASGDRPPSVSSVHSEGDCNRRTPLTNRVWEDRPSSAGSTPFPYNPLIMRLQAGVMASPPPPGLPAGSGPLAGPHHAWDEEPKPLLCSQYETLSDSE

[7] = target: Photoreceptor-specific nuclear receptor (Homo sapiens, UniProt Q9Y5X4); experiment: ligands suppressing NR2E3 nuclear receptor activity – biochemical, TR-FRET, dose response (AID 463256); type: functional
Chain of Photoreceptor-specific nuclear receptor (Q9Y5X4 whole entry): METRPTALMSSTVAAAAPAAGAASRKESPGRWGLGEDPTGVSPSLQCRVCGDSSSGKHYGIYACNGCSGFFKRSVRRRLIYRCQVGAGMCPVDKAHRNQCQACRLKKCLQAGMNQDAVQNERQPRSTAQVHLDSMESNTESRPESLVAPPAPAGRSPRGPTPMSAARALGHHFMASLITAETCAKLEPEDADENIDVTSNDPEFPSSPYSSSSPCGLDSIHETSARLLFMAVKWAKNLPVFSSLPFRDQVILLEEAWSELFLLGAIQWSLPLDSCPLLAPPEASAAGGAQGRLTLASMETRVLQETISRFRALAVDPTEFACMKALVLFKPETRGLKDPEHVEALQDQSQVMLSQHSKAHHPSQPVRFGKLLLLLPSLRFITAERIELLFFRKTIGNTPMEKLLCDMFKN

[8] = target: T3, Protein RecA (Mycobacterium tuberculosis, UniProt P9WHJ3); experiment: Fluorescence Cell-Free Homogeneous Dose Retest to Identify Inhibitors of RecA-Intein Splicing Activity. [Related pubchem assays (depositor defined):AID2097, AID2223, AID489010, AID492950]; type: functional
T3 sequence (P9WHJ3 whole entry): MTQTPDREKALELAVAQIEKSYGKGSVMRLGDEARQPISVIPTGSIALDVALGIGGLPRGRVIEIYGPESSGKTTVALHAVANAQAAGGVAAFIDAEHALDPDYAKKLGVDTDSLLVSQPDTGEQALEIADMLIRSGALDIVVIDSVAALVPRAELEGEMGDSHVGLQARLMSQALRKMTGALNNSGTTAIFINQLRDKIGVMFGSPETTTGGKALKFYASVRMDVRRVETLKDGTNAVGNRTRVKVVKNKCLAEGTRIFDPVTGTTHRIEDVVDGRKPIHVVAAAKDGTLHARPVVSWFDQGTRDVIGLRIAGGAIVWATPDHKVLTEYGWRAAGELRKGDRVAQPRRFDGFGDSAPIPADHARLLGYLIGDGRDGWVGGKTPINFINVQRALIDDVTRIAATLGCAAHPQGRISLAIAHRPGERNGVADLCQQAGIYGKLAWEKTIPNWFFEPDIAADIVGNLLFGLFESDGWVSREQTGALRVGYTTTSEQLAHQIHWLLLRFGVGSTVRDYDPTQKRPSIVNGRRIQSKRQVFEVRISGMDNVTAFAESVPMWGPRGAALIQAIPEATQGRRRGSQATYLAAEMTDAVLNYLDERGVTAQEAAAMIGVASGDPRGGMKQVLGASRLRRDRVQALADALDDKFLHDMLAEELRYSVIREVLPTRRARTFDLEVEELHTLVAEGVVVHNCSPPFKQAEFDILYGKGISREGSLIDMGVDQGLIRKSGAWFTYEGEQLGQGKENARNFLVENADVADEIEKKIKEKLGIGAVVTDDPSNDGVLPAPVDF

[9] = M. tuberculosis H37Rv growth inhibitors, H37Rv strain (AID 1626); type: functional
[10] = target: T4, Mannose-6-phosphate isomerase (Homo sapiens, UniProt P34949); experiment: MPI inhibition at elevated mannose 6-phosphate – biochemical, fluorescence intensity, high mannose 6-phosphate, primary screen (AID 1220)
T4 sequence (P34949 whole entry): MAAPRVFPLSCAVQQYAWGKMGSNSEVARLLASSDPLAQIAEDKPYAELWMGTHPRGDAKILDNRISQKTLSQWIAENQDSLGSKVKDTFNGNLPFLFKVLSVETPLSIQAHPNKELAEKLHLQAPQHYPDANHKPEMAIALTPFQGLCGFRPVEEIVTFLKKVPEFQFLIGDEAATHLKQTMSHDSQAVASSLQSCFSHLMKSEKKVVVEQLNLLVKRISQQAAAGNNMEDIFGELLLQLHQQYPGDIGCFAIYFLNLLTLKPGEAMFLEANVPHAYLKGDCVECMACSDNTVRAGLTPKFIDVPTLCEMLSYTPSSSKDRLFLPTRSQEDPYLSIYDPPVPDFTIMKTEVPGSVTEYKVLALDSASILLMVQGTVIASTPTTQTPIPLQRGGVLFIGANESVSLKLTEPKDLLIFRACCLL

[11] = IC50 of insulin release inhibition, rat insulinoma INS-1E line, 5 mM glucose, cell-based (AID 1117331); type: functional
[12] = rise of 4N DNA cells, HeLa – IC50, dose response (AID 1117351); type: functional, cell-based
[13] = rise of 2N DNA cells, HeLa – IC50, dose response (AID 1117349); type: functional, cell-based
[14] = toxicity to human HepG2 hepatoma cells – cell-based, plate reader, dry powder samples, cytotoxicity control, dose response (AID 1159569); type: functional;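 further: inhibitor potency with signal falling toward the positive control level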
[15] = P. falciparum Dd2 growth inhibitors, dose response, SYBR Green, cherry-picked samples (AID 1159567); type: functional, cell-based
[16] = growth inhibition of PfATP4-mutant resistant parasites – NITD609-resistant line, SYBR Green, dry powder, dose response (AID 1159571); type: functional, cell-based;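 further: parasites synchronized at ring stage by sorbitol before testing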
[17] = growth inhibition of yeast DHODH-expressing 3D7 parasites – SYBR Green, dry powder samples, dose response (AID 1159570); type: functional, cell-based;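 further: parasite growth measured after 72 hours of compound exposure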
[18] = toxicity to human hepatoma HepG2 cells – cell-based, cherry-picked samples, cytotoxicity control, dose response (AID 1159577); type: functional
[19] = Dd2 malaria parasite growth inhibition potency – SYBR Green, dry powder samples, dose response (AID 1159566); type: functional, cell-based;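 further: potency for growth inhibition with lower SYBR green DNA signal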

CC(C)S(=O)(=O)C1=NSC2=NC(=O)/C(=C\c3ccc(-c4ccccc4)o3)C(=N)N21
IC50 [1]: 45.6 µM (active) | IC50 [2]: 12.6 µM (active) | IC50 [3]: 27.1 µM (active)

CCC/C=C/C1C(=O)C2OC2C2(OCC(CC)(CC)CO2)C1CO (stereo unspecified)
AC50 [4]: 0.004 µM (inconclusive) | AC50 [5]: 3.98 µM (inconclusive)

Cc1nc2c(c3c1[nH]c1ccccc13)C(O)CC(C)(C)C2 (stereo unspecified)
IC50 [3]: 21.9 µM (active)

CS(=O)(=O)N(CC(=O)NC1CCCCC1)Cc1ccc(F)cc1
IC50 [6]: > 39.8 µM (not active) | IC50 [7]: > 39.8 µM (not active)

CC1CCC2C(=O)N3C(CCC(C)[C@@H]3c3cccc(N4CCOCC4)c3)C(=O)N2C1c1cccc(Br)c1 (stereo partly specified)
AC50 [4]: 7.94 µM (inconclusive)

COc1ccc(/N=C/C2=C(O)c3ccccc3CC2)cc1
EC50 [8]: 18.6 µM (active) | IC50 [9]: > 100 µM (active) | IC50 [10]: < 0.391 µM (not active)

CCN(CC)CCNC(=O)C1C(C)=NC(/C=C2\C(=O)Nc3ccc(F)cc32)=C1C (stereo unspecified)
IC50 [11]: > 33.3 µM (inactive) | IC50 [12]: > 10 µM (inactive) | IC50 [13]: > 10 µM (inactive)

COc1cccc(-c2ccc3c(c2)[C@@H]2[C@@H](CCN2C(=O)C2CCCC2)[C@@H](CO)N3)c1
AC50 [14]: 32.9 µM (active) | AC50 [15]: 2.25 µM (active) | AC50 [16]: 1.65 µM (active) | AC50 [17]: 2.57 µM (active) | AC50 [18]: > 39 µM (inactive) | AC50 [19]: 2.12 µM (active)
